Experimental findings from US8497287B2, “Aminotetralin compounds as mu opioid receptor antagonists” (priority 2007, dated 2013) are described below.

In test [1] the target is T1, human mu opioid receptor (Homo sapiens, UniProt P35372).
T1 construct: host or cells: CHO-K1 cells, membranes
The test can be described thus: biochemical. The test is classed as binding.

Test [2] deals with T1, human mu opioid receptor. In words: biochemical. The note with it: read-out: intrinsic activity (IA), expressed as a percentage.
Test [3] concerns loperamide-induced delayed gastric emptying. The test can be described thus: Rat gastric emptying assay, reversal of loperamide-induced delayed gastric emptying. The class given is in vivo. The conditions noted are these: administered orally, loperamide 1 mg/kg s.c., gastric emptying model.

T1 sequence (P35372 whole entry): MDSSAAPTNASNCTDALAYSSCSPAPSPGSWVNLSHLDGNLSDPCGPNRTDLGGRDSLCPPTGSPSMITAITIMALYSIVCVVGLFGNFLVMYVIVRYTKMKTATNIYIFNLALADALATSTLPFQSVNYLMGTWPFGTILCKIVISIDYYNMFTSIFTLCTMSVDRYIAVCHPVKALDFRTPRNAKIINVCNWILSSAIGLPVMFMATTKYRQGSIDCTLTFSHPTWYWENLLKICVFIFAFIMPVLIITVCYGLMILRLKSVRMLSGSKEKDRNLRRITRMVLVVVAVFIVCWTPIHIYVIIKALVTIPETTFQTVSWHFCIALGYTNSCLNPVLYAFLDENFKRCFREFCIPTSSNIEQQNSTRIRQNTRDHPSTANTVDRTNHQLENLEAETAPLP

`CCC1(CC)c2cc(O)ccc2C[C@@H](OC)[C@@H]1NCC(Cc1ccccc1)C(=O)O` (relative stereo) [Example 11, 2-Benzyl-3-(trans-1,1-diethyl-7-hydroxy-3-methoxy-1,2,3,4-tetrahydro-naphthalen-2-ylamino)-propionic acid] had a Ki in test [1] of 1.26 nM. Besides, the Emax in test [2] is -6%.

In the case of `COC1Cc2ccc(C(N)=O)cc2C(C)(C)C1NCCC(=O)N1CCCCC1` (racemic) [Example 1, trans-6-Methoxy-8,8-dimethyl-7-(3-oxo-3-piperidin-1-yl-propylamino)-5,6,7,8-tetrahydro-naphthalene-2-carboxylic acid amide], in test [3], the “ID50, dose required for 50% reversal of the effects of loperamide” value was 0.48 mg/kg. In test [1], this compound showed a Ki of 0.1 nM. For the same compound, the Emax in test [2] was determined as 0%.

As a reminder, the Ki is a dissociation constant, usually derived from enzyme kinetics or from competition with a known ligand. Low readings indicate tighter binding, high ones weaker binding.
